Test results reported in US20160303182A1, “USE OF PEPTIDES IN ANTIBIOTIC RESISTANCE” (priority 2013, published 2016).
Bridges are numbered along the chain shown (N, C = ends). Where no end group is shown, it is not given here.

How the values were obtained:
[1] = tested on: Klebsiella pneumoniae ATCC 700603 (MDR resistant strain); assay: CFU count after 24 h incubation with antibiotic alone or with grZ14s-nvCyc; type: cell-based
Description: Klebsiella pneumoniae ATCC 700603 (MDR resistant strain: Resistant to ampicillin, aztreonam, cefoxitin, cefpodoxime, ceftazidime, chloramphenicol, piperacillin, tetracycline) (3×10^5 CFU/mL) was incubated with either ampicillin, alone or with the grZ14s-nvCyc peptide (10 nM), for 24 hours at 37° C. with shaking (250 rpm). The solutions in the tubes were diluted ten-fold with phosphate buffered saline (PBS) by serial dilutions. The diluted solutions were then seeded on a blood plate agar and incubated at 37° C. for 24 hours.
A similar assay was performed with K. pneumoniae at lower bacterial concentrations of 2×10^3 CFU/mL.
K. pneumoniae ATCC 700603 (MDR resistant strain: Resistant to ampicillin, aztreonam, cefoxitin, cefpodoxime, ceftazidime, chloramphenicol, piperacillin, tetracycline) (2×10^6 CFU/mL) was incubated with either cefoxitin, alone or with the grZ14s-nvCyc peptide (10 nM), for 24 hours at 37° C. with shaking (250 rpm). The solutions were then treated as described in the examples above.
Similarly, K. pneumoniae ATCC 700603 (MDR resistant strain: Resistant to ampicillin, aztreonam, cefoxitin, cefpodoxime, ceftazidime, chloramphenicol, piperacillin, tetracycline) (4×10^6 CFU/mL) was incubated with chloramphenicol, alone or with grZ14s-nvCyc, as described in the Examples above.
Similarly, K. pneumoniae ATCC 700603 (MDR resistant strain: Resistant to ampicillin, aztreonam, cefoxitin, cefpodoxime, ceftazidime, chloramphenicol, piperacillin, tetracycline) (1×10^3 CFU/mL) was incubated with chloramphenicol, alone or with grZ14s-nvCyc, as described in the Examples above.

[2] = tested on: K. pneumoniae ATCC BAA 1705 (carbapenemase positive strain); assay: as above; type: cell-based, Klebsiella pneumoniae
Description: K. pneumoniae ATCC BAA® 1705 (3×10^2 CFU/mL) (carbapenemase positive strain) (carbapenem-imipenem and ertapenem, amikacin, aztreonam, levofloxacin and ciprofloxacin-resistant strain) was incubated with imipenem, alone or with the grZ14s-nvCyc peptide (10 nM), for 24 hours at 37° C. with shaking (250 rpm). The solutions were then treated as described in the examples above. […]
Similarly, K. pneumoniae ATCC BAA® 1705 (1×10^5 CFU/mL) was incubated with ciprofloxacin, alone or with grZ14s-nvCyc, as described in the Examples above. […]
K. pneumoniae ATCC BAA® 1705 (2×10^6 CFU/mL) (carbapenem-imipenem and ertapenem, amikacin, aztreonam, levofloxacin and ciprofloxacin-resistant strain) was incubated with levofloxacin, alone or with grZ14s-nvCyc, as described in the Examples above.
K. pneumoniae ATCC BAA® 1705 (1×10^5 CFU/mL) (carbapenem-imipenem and ertapenem, amikacin, aztreonam, levofloxacin and ciprofloxacin-resistant strain) was incubated with aztreonam, alone or with grZ14s-nvCyc, as described in the Examples above. […]

[3] = tested on: methicillin sensitive S. aureus ATCC 25923 (MSSA); assay: as above; type: cell-based, Staphylococcus aureus
Description: (§1) Staphylococcus aureus ATCC 43300 (5×10^5 CFU/mL) (MRSA strain) was incubated in 1.5 mL Eppendorf tubes with either oxacillin alone or oxacillin with the grZ14s-nvCyc peptide (10 nM) (cyclized CSVHSFDYDWYNVC) for 24 hours at 37° C. with shaking (250 rpm). The solutions in the tubes were diluted ten-fold with phosphate buffered saline (PBS) by serial dilutions. The diluted solutions were then seeded on a blood agar plate and incubated at 37° C. for 24 hours. The results represent the number of Colony Forming Unit (CFU) counts on the blood agar plates.
As a comparison, a strain of methicillin sensitive S. aureus ATCC 25923 (5×10^5 CFU/mL) was treated with oxacillin, alone or with the grZ14s-nvCyc (10 nM).
(§2) A similar assay was performed with S. aureus ATCC 43300 at a concentration of 7×10^6 CFU/mL. The bacterial concentration in this assay is higher (˜7×10^6 CFU/mL).
(§3) S. aureus ATCC 33591 (MRSA strain) (5×10^7 CFU/mL) and methicillin sensitive strain (MSSA) of S. aureus ATCC 25923 (1×10^8 CFU/mL) were incubated in 1.5 mL Eppendorf tubes with either oxacillin alone or oxacillin with the grZ14s-nvCyc (10 nM) for 24 hours at 37° C. with shaking (250 rpm). The solutions in the tubes were diluted ten-fold with PBS by serial dilutions. The diluted solutions were then seeded on a blood plate agar and incubated at 37° C. for 24 hours.

[4] = tested on: S. aureus ATCC BAA 1708 (MRSA strain, mupA positive); assay: CFU count after incubation with mupirocin alone or with grZ14s-nvCyc; type: cell-based, Staphylococcus aureus; settings: 1×10^5 CFU/mL; 10 nM grZ14s-nvCyc; FIG. 12
Description: as §1
S. aureus ATCC BAA® 1708 (MRSA strain, mupA positive) (1×10^5 CFU/mL) was incubated with mupirocin, alone or with grZ14s-nvCyc as described in the Examples above.

[5] = tested on: Enterococcus faecium ATCC 700221 (vancomycin, teicoplanin and tetracyclin resistant strain); assay: CFU count after 24 h incubation with antibiotic alone or with grZ14s-nvCyc; type: cell-based; settings: for bacteria killing concentration of tetracyclin lower with grZ14s-nvCyc than with tetracyclin alone: grZ14s-nvCyc (10 mN)
Description: Enterococcus faecium ATCC 700221 (4×10^2 CFU/mL) (vancomycin, teicoplanin and tetracyclin resistant strain) was incubated in 1.5 mL Eppendorf tubes with either vancomycin, alone or with the grZ14s-nvCyc peptide (10 nM), for 24 hours at 37° C. with shaking (250 rpm). The solutions in the tubes were diluted ten-fold with phosphate buffered saline (PBS) by serial dilutions. The diluted solutions were then seeded on a blood plate agar and incubated at 37° C. for 24 hours.
E. faecium ATCC 700221 (2×10^2 CFU/mL) (vancomycin, teicoplanin and tetracyclin resistant strain) was incubated with either teicoplanin, alone or with the grZ14s-nvCyc peptide (10 nM), for 24 hours at 37° C. with shaking (250 rpm). The solutions were treated as described above.
E. faecium ATCC 700221 (1×10^3 CFU/mL) (vancomycin, teicoplanin and tetracyclin resistant strain) was incubated with tetracyclin, alone or with grZ14s-nvCyc ([…]), as described in the Examples above. […] Similarly, E. faecium ATCC 700221 (2×10^5 CFU/mL) (vancomycin, teicoplanin and tetracyclin resistant strain) was incubated with tetracyclin, alone or with grZ14s-nvCyc ([…]), as described in the Examples above.

[6] = tested on: S. aureus ATCC 33591 (MRSA strain); assay: as above; type: cell-based, Staphylococcus aureus; settings: 10 nM grZ14s-nvCyc
Description: as §3
S. aureus ATCC 33591 (5×10^5 CFU/mL) (MRSA strain) was incubated in 1.5 mL Eppendorf tubes with oxacillin, alone or with the grZ14s-nvCyc peptide (10 nM), for 24 hours at 37° C. with shaking (250 rpm). […] The solutions in the tubes were diluted ten-fold with phosphate buffered saline (PBS) by serial dilutions. The diluted solutions were then seeded on a blood plate agar and incubated at 37° C. for 24 hours.

[7] = tested on: Staphylococcus aureus ATCC 43300 (MRSA strain); assay: as above; type: cell-based; settings: for bacteria killing concentration of oxacillin with grZ14s-nvCyc versus oxacillin alone: 10 nM grZ14s-nvCyc
Description: as §1, §2

## CC1(C)S[C@@H]2[C@H](NC(=O)[C@H](N)c3ccccc3)C(=O)N2[C@H]1C(=O)O [ampicillin, reference compound]
[1]; 2×10^3 CFU/mL, FIG. 8
  bacteria killing by ampicillin alone: achieves bacteria killing with the antibiotic alone
[1]; 3×10^5 CFU/mL, even very high concentrations of ampicillin, FIG. 7
  bacterial killing by ampicillin alone: could not achieve bacterial killing

## C[C@H]1[C@H](NC(=O)/C(=N\OC(C)(C)C(=O)O)c2csc(N)n2)C(=O)N1S(=O)(=O)O [aztreonam, reference compound]
[2]; 1×10^3 CFU/mL, FIG. 19b
  bacteria killing by aztreonam alone: able achieve bacteria killing activity
[2]; 1×10^5 CFU/mL, at 1000 μg/ml aztreonam, FIG. 19
  bacteria killing by aztreonam alone: does not achieve bacteria killing

## O=C(N[C@H](CO)[C@H](O)c1ccc([N+](=O)[O-])cc1)C(Cl)Cl [chloramphenicol, reference compound]
[1]; 1×10^3 CFU/mL, FIG. 16
  bacteria killing by chloramphenicol alone: can achieve bacteria killing activity
[1]; 4×10^6 CFU/mL, at the concentration where the combination kills, FIG. 15
  bacteria killing by chloramphenicol alone: does not achieve bacteria killing

## Cc1onc(-c2ccccc2)c1C(=O)N[C@@H]1C(=O)N2[C@@H]1SC(C)(C)[C@@H]2C(=O)O [oxacillin, reference compound]
[3]; ~7×10^6 CFU/mL, oxacillin alone, FIG. 2
  oxacillin concentration needed to kill the bacteria: 12.5 µg/mL

## cyclized CSVHSFDYDWYNVC (disulfide 1-14 (inferred); not fully specified) [grZ14s-nvCyc]
[4]
  bacterial load in the presence of a combination of mupirocin and grZ14s-nvCyc: reduced by at least one order of magnitude
[5]; 1×10^3 CFU/mL, FIG. 13a
  bacteria killing concentration of tetracyclin lower with grZ14s-nvCyc than with tetracyclin alone: 60%
[5]; 2×10^2 CFU/mL, 10 nM grZ14s-nvCyc, FIG. 6
  bacteria killing concentration of teicoplanin lower with grZ14s-nvCyc than with teicoplanin alone: about 60%
[5]; 2×10^5 CFU/mL, FIG. 13b
  bacteria killing concentration of tetracyclin lower with grZ14s-nvCyc than with tetracyclin alone: ~70%
[5]; 4×10^2 CFU/mL, 10 nM grZ14s-nvCyc, FIG. 5
  bacteria killing concentration of vancomycin lower with grZ14s-nvCyc than with vancomycin alone: about 50%
[6]; 5×10^5 CFU/mL, FIG. 4a
  bacteria killing concentration of oxacillin with grZ14s-nvCyc versus oxacillin alone: much lower
[6]; 5×10^7 CFU/mL, FIG. 3
  bacteria killing concentration of oxacillin in the presence of the peptide versus oxacillin alone: reduced to about half
[7]; 5×10^5 CFU/mL, 24 h, 37° C., FIG. 1a
  bacteria killing concentration of oxacillin with grZ14s-nvCyc versus oxacillin alone: much lower
[7]; 7×10^6 CFU/mL, FIG. 2
  bacteria killing concentration of oxacillin with grZ14s-nvCyc versus oxacillin alone: much lower
[7]; ~7×10^6 CFU/mL, oxacillin with 10 nM grZ14s-nvCyc, FIG. 2
  oxacillin concentration needed to kill the bacteria, with grZ14s-nvCyc: 6.25 µg/mL
[2]; 1×10^5 CFU/mL, 10 nM grZ14s-nvCyc, FIG. 14
  bacteria killing concentration of ciprofloxacin lower with grZ14s-nvCyc than with ciprofloxacin alone: 80%
[2]; 1×10^5 CFU/mL, 10 nM grZ14s-nvCyc, FIG. 19
  aztreonam concentration at which aztreonam with grZ14s-nvCyc achieves bacteria killing: 1000 µg/mL
[2]; 1×10^6 CFU/mL, incubated with amikacin, alone or with grZ14s-nvCyc, FIG. 17
  bacteria killing concentration of amikacin with grZ14s-nvCyc lower than with amikacin alone: 75%
[2]; 2×10^6 CFU/mL, 10 nM grZ14s-nvCyc, FIG. 18
  bacteria killing concentration of levofloxacin with grZ14s-nvCyc lower than with levofloxacin alone: 30%
[2]; 3×10^2 CFU/mL, 10 nM grZ14s-nvCyc, FIG. 10
  bacteria killing concentration of imipenem lower with grZ14s-nvCyc than in imipenem alone: > 75%
[1]; 1×10^3 CFU/mL, 10 nM grZ14s-nvCyc, FIG. 16
  bacteria killing concentration of chloramphenicol with grZ14s-nvCyc lower than with chloramphenicol alone: 20%
[1]; 2×10^3 CFU/mL, 10 nM grZ14s-nvCyc, FIG. 8
  bacteria killing concentration of ampicillin lower with grZ14s-nvCyc than with ampicillin alone: 100 µg/mL
[1]; 2×10^6 CFU/mL, 10 nM grZ14s-nvCyc, FIG. 9
  bacteria killing concentration of cefoxitin lower with grZ14s-nvCyc than in cefoxitin alone: > 80%
[1]; 3×10^5 CFU/mL, 10 nM grZ14s-nvCyc, FIG. 7
  bacteria killing activity of ampicillin with grZ14s-nvCyc at lower concentrations: ~100%
[1]; 4×10^6 CFU/mL, 10 nM grZ14s-nvCyc, FIG. 15
  bacteria killing by chloramphenicol with grZ14s-nvCyc: achieves bacteria killing at a concentration where chloramphenicol alone does not achieve bacteria killing
[3]; 1×10^6 CFU/mL, 10 nM grZ14s-nvCyc, FIG. 4b
  difference between the activity of oxacillin with or without grZ14s-nvCyc: no significant difference
[3]; 1×10^8 CFU/mL, 10 nM grZ14s-nvCyc, FIG. 3
  bacteria killing concentration of oxacillin in the presence of the peptide versus oxacillin alone: reduced to about half
[3]; 5×10^5 CFU/mL, 10 nM grZ14s-nvCyc, FIG. 1b
  difference between the activity of oxacillin with or without grZ14s-nvCyc: no significant difference
